These results are taken from patent publication US20020099070A1, “Dihydronaphthyridine potassium channel openers” (priority 2000, published 2002).

What is called EC50 is the concentration at which the effect is half-maximal. A low value points to an effect from little substance.

For this assay, the system named is primary cultured guinea-pig urinary bladder (GPB) cells. Kind of assay: Membrane hyperpolarization (MHP) assay, DiBAC(4)3 / FLIPR. Format: cell-based. As to conditions: for Emax / Maximal Response (% P1075): maximal steady-state hyperpolarization, normalized to 10 μM P1075 = 100%; for Emax: read-out: Maximal Response (% P1075); for EC50: membrane hyperpolarization in GPB cells. As to the method: Compounds were evaluated for potassium channel opening activity using primary cultured guinea-pig urinary bladder (GPB) cells.
For the preparation of urinary bladder smooth muscle cells, urinary bladders were removed from male guinea-pigs (Hartley, Charles River, Wilmington, Mass.) weighing 300-400 g and placed in ice-cold Ca^2+-free Krebs solution (Composition, mM: KCl, 2.7; KH2PO4, 1.5; NaCl, 75; Na2HPO4, 9.6; Na2HPO4.7H2O, 8; MgSO4, 2; glucose, 5; HEPES, 10; pH 7.4). Cells were isolated by enzymatic dissociation as previously described with minor modifications in Klockner, U. and Isenberg, G., Pflugers Arch. 1985, 405, 329-339, hereby incorporated by reference. The bladder was cut into small sections and incubated in 5 mL of the Kreb's solution containing 1 mg/mL collagenase (Sigma, St. Louis, Mo.) and 0.2 mg/mL pronase (Calbiochem, La Jolla, Calif.) with continuous stirring in a cell incubator for 30 minutes. The mixture was then centrifuged at 1300×g for 5 minutes, and the pellet resuspended in Dulbecco's PBS (GIBCO, Gaithersburg, Md.) and recentrifuged to remove residual enzyme. The cell pellet was resuspended in 5 mL growth media (composition: Dulbecco's modified Eagle's medium supplemented with 10% fetal bovine serum, 100 units/mL penicillin, 100 units/mL streptomycin and […] amphotericin B) and further dissociated by pipetting the suspension through a flame-polished Pasteur pipette and passing it through a polypropylene mesh membrane (Spectrum, Houston, Tex.). The cell density was adjusted to 100,000 cells/mL by resuspension in growth media. Cells were plated in clear-bottomed black 96-well plates (Packard) for membrane potential studies at a density of 20,000 cells/well and maintained in a cell incubator with 90% air: 10% CO2 until confluent. Cells were confirmed to be of smooth muscle type by cytoskeletal staining using a monoclonal mouse anti human-α-smooth muscle actin (Biomeda, Foster City, Calif.).
Functional activity at potassium channels was measured by evaluating changes in membrane potential using the bis-oxonol dye DiBAC(4)3 (Molecular Probes) in a 96-well cell-based kinetic assay system, Fluorescent Imaging Plate Reader (FLIPR) (K. S. Schroeder et al., J. Biomed. Screen., v. 1 pp. 75-81 (1996)), hereby incorporated by reference. DiBAC(4)3 is an anionic potentiometric probe which partitions between cells and extracellular solution in a membrane potential-dependent manner. With increasing membrane potential (for example, K^+ depolarization), the probe fuither partitions into the cell; this is measured as an increase in fluorescence due to dye interaction with intracellular lipids and proteins. Conversely, decreasing membrane potential (hyperpolarization by potassium channel openers) evokes a decrease in fluorescence.
Confluent guinea-pig urinary bladder cells cultured in black clear-bottomed 96-well plates were rinsed twice with […] assay buffer (composition, mM: HEPES, 20; NaCl, 120; KCl, 2; CaCl2, 2; MgCl2, 1; glucose, 5; pH 7.4 at 25° C.) containing 5 μM DiBAC(4)3 and incubated with […] of the buffer in a cell incubator for 30 minutes at 37° C. to ensure dye distribution across the membrane. After recording the baseline fluorescence for 5 minutes, the reference or test compounds, prepared at 10 times the concentration in the assay buffer, were added directly to the wells. Changes in fluorescence were monitored for an additional 25 minutes. Hyperpolarization responses were corrected for any background noise and were normalized to the response observed with 10 μM of the reference compound P1075, N″-cyano-N-(tert-pentyl)-N′-(3-pyridinyl)guanidine, which was assigned as 100%. P1075 is a potent opener of smooth muscle KATP channels (Quast et al., Mol. Pharmacol., v. 43 pp. 474-481 (1993)) and was prepared using the procedures described in (Manley, J. Med. Chem. (1992) 35, 2327-2340), hereby incorporated by reference. […]

On to `CC1=C(C#N)C(c2ccc(F)c(Br)c2)C2=C(CCNC2=O)N1` (racemic) [Example 1, 4-(3-bromo-4-fluorophenyl)-3-cyano-2-methyl-4,6,7,8-tetrahydro[1,6]naphthyridin-5(1H)-one], for which, for the setting “Cavia porcellus”, the Emax amounted to 83% and the response was half-maximal at 0.052 µM (EC50).

For the compound `CC1=C(C#N)C(c2ccc(F)c(Br)c2)c2c(cc[nH]c2=O)N1` (racemic) [Example 4, 4-(3-bromo-4-fluorophenyl)-3-cyano-2-methyl-4,6-dihydro[1,6]naphthyridin-5(1H)-one], under “Cavia porcellus”, the Emax was determined as 92% and the EC50 stood at 0.013 µM.

On to `CC(=O)C1=C(C)Nc2cc[nH]c(=O)c2C1c1ccc(F)c(Br)c1` (racemic) [Example 18, 3-acetyl-4-(3-bromo-4-fluorophenyl)-2-methyl-4,6-dihydro[1,6]naphthyridin-5(1H)-one], for which, where the note is “Cavia porcellus”, the Emax turned out to be 83% and the concentration giving a half-maximal response (EC50) was 0.74 µM.

As for `CC1=C(C#N)C(c2ccc(F)c(Br)c2)c2c(ccnc2Cl)N1` (racemic) [Example 32, 4-(3-bromo-4-fluorophenyl)-5-chloro-3-cyano-2-methyl-1,4-dihydro[1,6]naphthyridine], under “Cavia porcellus”, the Emax was found to be 91% and the EC50 is 0.004 µM.

With `CC1=C(C#N)C(c2ccc(F)c(Br)c2)C2=C(CCNC2=O)N1` (stereo not drawn) [Example 3, 4-(3-bromo-4-fluorophenyl)-3-cyano-2-methyl-4 6,7,8-tetrahydro[1,6]naphthyridin-5(1H)-one], the “Maximal Response (% P1075)” value was determined as 78 % P1075 and a half-maximal effect (EC50) was put at 2.5 µM.

With `CC1=C(C#N)C(c2ccc(Cl)c(Cl)c2)C2=C(CCNC2=O)N1` (stereo not drawn) [Example 8, 4-(3,4-dichlorophenyl)-3-cyano-2-methyl-4,6,7,8-tetahydro[1,6]naphthyridin-5(1H)-one], the “Maximal Response (% P1075)” value is reported as 97 % P1075 and the midpoint of the response, the EC50, lay at 0.038 µM.

Consider `CC1=C(C#N)C(c2cccc([N+](=O)[O-])c2)C2=C(CCNC2=O)N1` (stereo not drawn) [Example 9, 4-(3-nitrophenyl)-3-cyano-2-methyl-4,6,7,8-tetrahydro[1,6]naphthyridin-5(1H)-one], for which, for the setting “Cavia porcellus”, the Emax was 106% and the EC50 is 0.62 µM.

Turning to `CC1=C(C#N)C(c2ccc(Cl)c([N+](=O)[O-])c2)C2=C(CCNC2=O)N1` (stereo not drawn) [Example 10, 4-(4-chloro-3-nitrophenyl)-3-cyano-2-methyl-4,6,7,8-tetrahydro[1,6]naphthyridin-5(1H)-one], under “Cavia porcellus”, the Emax was 110% and the concentration for a half-maximal effect (EC50) is 0.14 µM.

On to `CC1=C(C#N)C(c2ccc(Br)c(Br)c2)C2=C(CCNC2=O)N1` (stereo not drawn) [Example 11, 4-(3,4-dibromophenyl)-3-cyano-2-methyl-4,6,7,8-tetrahydro[1,6]naphthyridin-5(1H)-one], for which, under “Cavia porcellus”, the Emax was determined as 105% and the 50% effective concentration (EC50) was 0.023 µM.

Take `CC1=C(C#N)C(c2ccc(F)c(F)c2)C2=C(CCNC2=O)N1` (stereo not drawn) [Example 12, 4-(3,4-difluorophenyl)-3-cyano-2-methyl-4,6,7,8-tetrahydro[1,6]naphthyridin-5(1H)-one]: where the note is “Cavia porcellus”, the Emax is 89% and the half-maximal effective concentration (EC50) amounted to 0.89 µM.

As to `CC1=C(C#N)C(c2ccc(F)c(C(F)(F)F)c2)C2=C(CCNC2=O)N1` (stereo not drawn) [Example 13, 4-[4-fluoro-3-(trifluoromethyl)phenyl]-3-cyano-2-methyl-4,6,7,8-tetrahydro[1,6]naphthyridin-5(1H)-one], for the setting “Cavia porcellus”, the Emax was 99% and the EC50 was 0.35 µM.

`CC1=C(C#N)C(c2cc(F)c(F)cc2F)C2=C(CCNC2=O)N1` (stereo not drawn) [Example 14, 4-(2,4,5-trifluorophenyl)-3-cyano-2-methyl-4,6,7,8-tetrahydro[1,6]naphthyridin-5(1H)-one]: under “Cavia porcellus”, the Emax came out at 84% and the EC50 is 2.6 µM.

In the case of `CC1=C(C#N)C(c2ccc(F)c(Cl)c2)C2=C(CCNC2=O)N1` (stereo not drawn) [Example 15, 4-(3-chloro-4-fluorophenyl)-3-cyano-2-methyl-4,6,7,8-tetrahydro[1,6]naphthyridin-5(1H)-one], under “Cavia porcellus”, the Emax was determined as 102% and the EC50 came to 0.11 µM.

On to `CC1=C(C#N)C(c2ccc(Cl)c(C(F)(F)F)c2)C2=C(CCNC2=O)N1` (stereo not drawn) [Example 16, 4-[4-chloro-3-(trifluoromethyl)phenyl]-3-cyano-2-methyl-4,6,7,8-tetrahydro[1,6]naphthyridin-5(1H)-one], for which, for the setting “Cavia porcellus”, the Emax worked out at 109% and the EC50 came to 0.18 µM.

As for `CC(=O)C1=C(C)NC2=C(C(=O)NCC2)C1c1ccc(F)c(Br)c1` (stereo not drawn) [Example 17, 3-acetyl-4-(3-bromo-4-fluorophenyl)-2-methyl-4,6,7,8-tetrahydro[1,6]naphthyridin-5(1H)-one], under “Cavia porcellus”, the Emax was found to be 45% and the EC50 was 14 µM.

In the case of `CC(=O)C1=C(C)Nc2cc[nH]c(=O)c2C1c1ccc(F)c(Br)c1` (stereo not drawn) [Example 19, 3-acetyl-4-(3-bromo-4-fluorophenyl)-2-methyl-4,6-dihydro[1,6]naphthyridin-5(1H)-one], for the setting “Cavia porcellus”, the Emax is 104% and the concentration for a half-maximal effect (EC50) was 0.62 µM.

`O=C1NCCC2=C1C(c1ccc(F)c(Br)c1)C(C(=O)c1ccccc1)=C(c1ccccc1)N2` (stereo not drawn) [Example 20, 3-benzoyl-4-(3-bromo-4-fluorophenyl)-2-phenyl-4,6,7,8-tetrahydro[1,6]naphthyridin-5(1H)-one]: where the note is “Cavia porcellus”, the Emax came out at 51% and the concentration for a half-maximal effect (EC50) was found to be 18 µM.

For the compound `CC1=C(C#N)C(c2ccc(F)c(Br)c2)C2=C(CCOC2=O)N1` (stereo not drawn) [Example 28, 4-(3-bromo-4-fluorophenyl)-3-cyano-2-methyl-1,4,7,8-tetrahydro-5H-pyrano[4,3-b]pyridin-5-one], for the setting “Cavia porcellus”, the Emax came to 82% and the EC50 amounted to 0.022 µM.

Regarding `COC(=O)C1=C(C)NC2=C(C(=O)OCC2)C1c1ccc(F)c(Br)c1` (stereo not drawn) [Example 29, 4-(3-bromo-4-fluorophenyl)-3-methoxycarbonyl-2-methyl-1,4,7,8-tetrahydro-5H-pyrano[4,3-b]pyridin-5-one], for the setting “Cavia porcellus”, the Emax is 81% and the concentration giving a half-maximal response (EC50) stood at 0.019 µM.

As for `COC(=O)C1=C(C)NC2=C(C(=O)OCC2)C1c1ccc(F)c(C(F)(F)F)c1` (stereo not drawn) [Example 30, 4-[4-fluoro-3-(trifluoromethyl)phenyl]-3-methoxycarbonyl-2-methyl-1,4,7,8-tetrahydro-5H-pyrano[4,3-b]pyridin-5-one], for the setting “Cavia porcellus”, the Emax was determined as 52% and the response was half-maximal at 4 µM (EC50).

For `COC(=O)C1=C(C)Nc2ccnc(Cl)c2C1c1ccc(F)c(Br)c1` (stereo not drawn) [Example 31, 4-(3-bromo-4-fluorophenyl)-5-chloro-3-(methoxycarbonyl)-2-methyl-1,4-dihydro[1,6]naphthyridine], for the setting “Cavia porcellus”, the Emax worked out at 93% and it took 0.039 µM to reach a half-maximal effect (EC50).
